Measured values from patent publication US11530186B2, “Inhibitors for the β-catenin / T-cell factor protein-protein interaction” (H. LEE MOFFITT CANCER CENTER AND RESEARCH INSTITUTE, INC., priority 2018, dated 2022).
Like-named read-outs stand apart in the source and are kept apart here.

Legend:
[1] = target: T1, β-catenin/Tcf protein-protein interaction (Homo sapiens, UniProt P35222); assay: FP competitive inhibition assay; format: binding
T1 construct: Wild-type β-catenin (residues 138-781) were cloned into a pET-28b vector; 6×histidine (C); made in house; host or cells: E. coli BL21 DE3
T1 sequence (P35222 138-781): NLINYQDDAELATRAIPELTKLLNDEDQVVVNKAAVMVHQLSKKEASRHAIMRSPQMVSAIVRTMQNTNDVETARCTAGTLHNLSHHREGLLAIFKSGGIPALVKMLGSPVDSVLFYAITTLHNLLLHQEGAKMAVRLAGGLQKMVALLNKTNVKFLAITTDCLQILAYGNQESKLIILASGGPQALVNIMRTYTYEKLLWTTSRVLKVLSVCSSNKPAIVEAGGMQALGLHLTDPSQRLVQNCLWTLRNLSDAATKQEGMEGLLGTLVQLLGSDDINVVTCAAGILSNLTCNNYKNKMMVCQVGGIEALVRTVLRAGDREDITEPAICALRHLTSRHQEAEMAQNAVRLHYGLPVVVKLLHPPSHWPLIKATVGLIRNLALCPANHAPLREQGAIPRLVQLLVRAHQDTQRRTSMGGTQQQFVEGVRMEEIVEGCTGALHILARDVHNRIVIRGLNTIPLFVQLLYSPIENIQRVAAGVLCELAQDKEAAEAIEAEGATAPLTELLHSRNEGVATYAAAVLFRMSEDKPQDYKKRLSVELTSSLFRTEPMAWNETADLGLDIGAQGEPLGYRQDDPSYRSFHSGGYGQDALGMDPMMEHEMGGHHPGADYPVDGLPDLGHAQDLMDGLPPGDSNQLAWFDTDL
How it was run: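 His-tagged human β-catenin (residues 138-781, E. coli-expressed) at 10 nM with 2.5 nM fluorescein-labeled Tcf4 (7-51) in PBS-type buffer with bovine γ-globulin and 0.01% Triton X-100. Compounds added, 1.5 h at 4 °C, 1% DMSO, before fluorescence polarization read. IC50 by nonlinear fit; Ki derived from IC50.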

SW480 cells = assay: MTS cell viability assay, SW480; format: cell-based; conditions: Homo sapiens, SW480, 72 h, mean ± SD (n = 3)
Protocol: (§1) MTS Cell Viability Assay. Colorectal cancer cells (SW480 and HCT116), TNBC cells (MDA-MB-231, MDA-MB-468, and BT-20), and lung cancer A549 cells were seeded in 96-well plates at 5×10^3 cells/well, maintained overnight at 37° C., and incubated with the tested compounds at various concentrations. Cell viability was monitored after 72 h using a freshly prepared mixture of 1 part phenazine methosulfate (PMS, Sigma) solution (0.92 mg/mL) and 19 parts 3-(4,5-dimethylthiazol-2-yl)-5-(3-carboxymethoxyphenyl)-2-(4-sulfophenyl)-2H-tetrazolium (MTS, Promega) solution (2 mg/mL). Cells were incubated in 10 μL of this solution at 37° C. for 3 h, and A490 was measured. The effect of each compound is expressed as the concentration required to reduce A490 by 50% (IC50) relative to DMSO-treated cells. Experiments were performed in triplicate.

HCT116 cells = assay: MTS cell viability assay, HCT116; format: cell-based; conditions: Homo sapiens, HCT-116; 72 h; mean ± SD (n = 3); Table 5; read-out: MTS cell viability IC50, Wnt hyperactive cancer cells HCT116
Protocol: as §1

[2] = Assay 1, mean ± SD (n = 3), read-out: Ki ± SD, Assay 1
[3] = Assay 2, mean ± SD (n = 3), read-out: Ki ± SD, Assay 2
[4] = Table 5, read-out: MTS cell viability IC50, Wnt hyperactive cancer cells SW480
[5] = Table 4, read-out: MTS cell viability IC50, Wnt hyperactive SW480 Cells (converted)

Ki [1, 2] | Ki [1, 3] | IC50 (SW480 cells; [4]) | IC50 (HCT116 cells) | IC50 (SW480 cells; [5]) | Ki ([1]; Assay 3, mean ± SD (n = 3), read-out: Ki ± SD, Assay 3) | Compound
3.1 ± 0.18 µM | 7.6 ± 0.55 µM | 21 ± 2.1 µM | 28 ± 3.8 µM | – | – | COc1ccc2sc(CCc3c(CCc4ccc(Cl)cc4)c4cc(C(=O)NCc5ccon5)ccc4n3CCc3nn[nH]n3)nc2c1 [Compound 62, 1-(2-(2H-tetrazol-5-yl)ethyl)-3-(4-chlorophenethyl)-N-(isoxazol-3-ylmethyl)-2-(2-(5-methoxybenzo[d]thiazol-2-yl)ethyl)-1H-indole-5-carboxamide]
2.9 ± 0.5 µM | 5.1 ± 0.42 µM | 13 ± 1.7 µM | 20 ± 2.7 µM | – | – | COc1ccc2sc(CCc3c(CCc4ccc(Cl)cc4)c4cc(C(=O)NCc5ccccn5)ccc4n3CCc3nn[nH]n3)nc2c1 [Compound 55, 1-(2-(2H-tetrazol-5-yl)ethyl)-3-(4-chlorophenethyl)-2-(2-(5-methoxybenzo[d]thiazol-2-yl)ethyl)-N-(pyridin-2-ylmethyl)-1H-indole-5-carboxamide]
1.9 ± 0.14 µM | 3 ± 0.24 µM | 11 ± 1.5 µM | 11 ± 1.7 µM | – | – | COc1ccc2sc(CCc3c(CCc4ccc(Cl)cc4)c4cc(C(=O)NCc5ccccc5N(C)C)ccc4n3CCc3nn[nH]n3)nc2c1 [Compound 54, 1-(2-(2H-tetrazol-5-yl)ethyl)-3-(4-chlorophenethyl)-N-(2-(dimethylamino)benzyl)-2-(2-(5-methoxybenzo[d]thiazol-2-yl)ethyl)-1H-indole-5-carboxamide]
0.93 ± 0.092 µM | 4.7 ± 0.28 µM | 14 ± 1.9 µM | 18 ± 2.8 µM | – | – | COc1ccc2sc(CCc3c(CCc4ccc(Cl)cc4)c4cc(C(=O)NCc5csc(C)n5)ccc4n3CCc3nn[nH]n3)nc2c1 [Compound 60, 1-(2-(2H-tetrazol-5-yl)ethyl)-3-(4-chlorophenethyl)-2-(2-(5-methoxybenzo[d]thiazol-2-yl)ethyl)-N-((2-methylthiazol-4-yl)methyl)-1H-indole-5-carboxamide]
2.4 ± 0.56 µM | 3.2 ± 0.24 µM | – | – | 9.3 ± 4.9 µM | – | COc1ccc2sc(CCc3c(CCc4ccc(Cl)cc4)c4cc(C(=O)NCc5ccc(Cl)cc5)ccc4n3CCc3nn[nH]n3)nc2c1 [Compound 48, 1-(2-(2H-tetrazol-5-yl)ethyl)-N-(4-chlorobenzyl)-3-(4-chlorophenethyl)-2-(2-(5-methoxybenzo-[d]thiazol-2-yl)ethyl)-1H-indole-5-carboxamide]
0.34 ± 0.043 µM | 0.24 ± 0.043 µM | 115 ± 22 µM | 133 ± 4.1 µM | – | – | Cc1ccc(CCc2c(-c3ccsc3)n(CCc3nn[nH]n3)c3ccc(C(=O)NO)cc23)cc1 [Compound 90, 1-(2-(2H-tetrazol-5-yl)ethyl)-N-hydroxy-3-(4-methylphenethyl)-2-(thiophen-3-yl)-1H-indole-5-carboxamide]
– | – | – | – | > 400 µM | – | COC(=O)CCn1c(CCc2nc3ccccc3s2)c(CCc2ccc(Cl)cc2)c2cc(C(=O)OC)ccc21 [Compound 43, Methyl 2-(2-(benzo[d]thiazol-2-yl)ethyl)-3-(4-chlorophenethyl)-1-(3-methoxy-3-oxopropyl)-1H-indole-5-carboxylate]
1.2 ± 0.28 µM | 3.2 ± 0.79 µM | – | – | – | – | Cc1ccc(CCc2c(-c3cc[nH]c3)n(CCc3nn[nH]n3)c3ccc(C(=O)O)cc23)cc1 [Compound 81, 1-(2-(2H-tetrazol-5-yl)ethyl)-3-(4-methylphenethyl)-2-(1H-pyrrol-3-yl)-1H-indole-5-carboxylic acid]
36 ± 9.5 µM | 10 ± 2.2 µM | – | – | – | – | O=C(O)CCn1c(CCc2nc3ccccc3[nH]2)c(CCc2ccc(Cl)cc2)c2cc(C(=O)O)ccc21 [Compound 41, 2-(2-(1H-benzo[d]imidazol-2-yl)ethyl)-1-(2-carboxyethyl)-3-(4-chlorophenethyl)-1H-indole-5-carboxylic acid]
6.1 ± 1.5 µM | 7.5 ± 1.9 µM | – | – | – | 3.7 ± 1.3 µM | COCCOc1ccc2sc(CCc3c(CCc4ccc(Cl)cc4)c4cc(C(=O)O)ccc4n3CCc3nn[nH]n3)nc2c1 [Compound 32, 1-(2-(2H-tetrazol-5-yl)ethyl)-3-(4-chlorophenethyl)-2-(2-(5-(2-methoxyethoxy)benzo [d]thiazol-2-yl)ethyl)-1H-indole-5-carboxylic acid]
0.83 ± 0.048 µM | 3.7 ± 0.23 µM | – | – | – | – | COc1ccc2sc(CCc3c(CCc4ccc(Cl)cc4)c4cc(C(=O)NCc5ccsc5)ccc4n3CCc3nn[nH]n3)nc2c1 [Compound 59, 1-(2-(2H-tetrazol-5-yl)ethyl)-3-(4-chlorophenethyl)-2-(2-(5-methoxybenzo[d]thiazol-2-yl)ethyl)-N-(thiophen-3-ylmethyl)-1H-indole-5-carboxamide]
6.5 ± 1 µM | – | – | – | – | – | O=C(O)c1ccc2c(c1)c(CCc1ccc3ccccc3c1)cn2CCc1nn[nH]n1 [Compound 13, 1-(2-(2H-tetrazol-5-yl)ethyl)-3-(2-(naphthalen-2-yl)ethyl)-1H-indole-5-carboxylic acid]
16 ± 0.71 µM | ~24 µM | – | – | – | – | Cc1ccc(CCc2c(-c3ccsc3)n(CCc3nn[nH]n3)c3ccc(C(N)=O)cc23)cc1 [Compound 88, 1-(2-(2H-tetrazol-5-yl)ethyl)-3-(4-methylphenethyl)-2-(thiophen-3-yl)-1H-indole-5-carboxamide]
5.4 ± 0.76 µM | 9.5 ± 1.5 µM | – | – | – | – | COc1ccc2sc(CCc3c(CCc4ccc(Cl)cc4)c4cc(C(=O)NCC5CCOCC5)ccc4n3CCc3nn[nH]n3)nc2c1 [Compound 64, 1-(2-(2H-tetrazol-5-yl)ethyl)-3-(4-chlorophenethyl)-2-(2-(5-methoxybenzo[d]thiazol-2-yl)ethyl)-N-((tetrahydro-2H-pyran-4-yl)methyl)-1H-indole-5-carboxamide]
3.6 ± 0.6 µM | 4.8 ± 0.84 µM | – | – | – | – | COc1ccc2sc(CCc3c(CCc4ccc(Cl)cc4)c4cc(C(=O)NCc5ccccc5Cl)ccc4n3CCc3nn[nH]n3)nc2c1 [Compound 51, 1-(2-(2H-tetrazol-5-yl)ethyl)-N-(2-chlorobenzyl)-3-(4-chlorophenethyl)-2-(2-(5-methoxybenzo[d]thiazol-2-yl)ethyl)-1H-indole-5-carboxamide]
1.8 ± 0.11 µM | 0.68 ± 0.059 µM | – | – | – | – | COc1ccc2nc(C#Cc3c(CCc4ccc5c(c4)OCCO5)c4cc(C(=O)O)ccc4n3CCc3nn[nH]n3)sc2c1 [Compound 75, 1-(2-(2H-tetrazol-5-yl)ethyl)-3-(2-(2,3-dihydrobenzo[b][1,4]dioxin-6-yl)ethyl)-2-((6-methoxybenzo[d]thiazol-2-yl)ethynyl)-1H-indole-5-carboxylic acid]
29 ± 3.3 µM | 2 ± 1.2 µM | – | – | – | – | Cc1ccc(CCc2c(CCc3nc4ccccc4[nH]3)n(CCC(=O)O)c3ccc(C(=O)O)cc23)cc1 [Compound 42, 2-(2-(1H-benzo[d]imidazol-2-yl)ethyl)-1-(2-carboxyethyl)-3-(4-methylphenethyl)-1H-indole-5-carboxylic acid]
6.6 ± 0.44 µM | 41 ± 1.5 µM | – | – | – | – | O=C(O)c1ccc2c(c1)c(CCc1ccc(Cl)c(Cl)c1)cn2CCc1nn[nH]n1 [Compound 12, 1-(2-(2H-tetrazol-5-yl)ethyl)-3-(3,4-dichlorophenethyl)-1H-indole-5-carboxylic acid]
550 ± 56 µM | – | – | – | – | – | O=C(O)c1ccc2c(ccn2CCc2nn[nH]n2)c1 [Compound 4, 1-(2-(2H-tetrazol-5-yl)ethyl)-1H-indole-5-carboxylic acid]
11 ± 1.8 µM | 5.2 ± 1.7 µM | – | – | – | – | O=C(O)c1ccc2c(c1)c(CCc1ccc(Cl)cc1)c(CCc1nc3ccccc3[nH]1)n2CCc1nn[nH]n1 [Compound 29, 2-(2-(1H-benzo[d]imidazol-2-yl)ethyl)-1-(2-(2H-tetrazol-5-yl)ethyl)-3-(4-chlorophenethyl)-1H-indole-5-carboxylic acid]
